{"source": "ChEMBL document CHEMBL1201862", "about": "“PubChem BioAssay data set” (2004)", "key": {"Leucine aminopeptidase": {"molecular_target": "T1, Leucine aminopeptidase (Plasmodium falciparum 3D7, UniProt Q8IL11)", "T1 sequence (Q8IL11 whole entry)": "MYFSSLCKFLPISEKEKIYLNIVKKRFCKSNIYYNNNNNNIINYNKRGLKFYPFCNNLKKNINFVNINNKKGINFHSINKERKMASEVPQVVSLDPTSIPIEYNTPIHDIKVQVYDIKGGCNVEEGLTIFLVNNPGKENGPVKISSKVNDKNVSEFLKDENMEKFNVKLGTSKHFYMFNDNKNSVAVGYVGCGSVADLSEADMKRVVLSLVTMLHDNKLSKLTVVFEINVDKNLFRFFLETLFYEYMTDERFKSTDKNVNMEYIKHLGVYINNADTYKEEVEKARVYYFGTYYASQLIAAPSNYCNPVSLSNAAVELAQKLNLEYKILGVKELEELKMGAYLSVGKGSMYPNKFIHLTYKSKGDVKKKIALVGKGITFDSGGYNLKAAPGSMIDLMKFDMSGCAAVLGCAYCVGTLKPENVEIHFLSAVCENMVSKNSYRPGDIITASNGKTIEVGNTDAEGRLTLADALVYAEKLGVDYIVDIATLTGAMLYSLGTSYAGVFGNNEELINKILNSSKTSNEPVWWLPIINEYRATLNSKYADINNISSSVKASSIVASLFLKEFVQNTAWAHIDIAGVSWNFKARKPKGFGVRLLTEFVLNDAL", "experiment": "P. falciparum M17LAP inhibitors, primary screen, biochemical, fluorogenic H-Leu-NHMec substrate, 1536-well (AID 1619)", "type": "functional"}, "[1]": {"experiment": "Luminescence Cell-Based Dose Confirmation HTS to Identify Inhibitors of Platelet Dense Granule Release. [Related pubchem assays: 1663 (Primary HTS), 1678 (Summary of Project)]", "type": "functional"}, "[2]": {"experiment": "Luminescence Cell-Based Dose Response HTS to Identify Inhibitors of 5'UTR Stem-Loop Driven Prion Protein mRNA Translation in H4 Neuroglioblastoma Cells. [Related pubchem assays: 1827 (Project Summary), 1813 (Primary HTS)]", "type": "functional"}, "[3]": {"experiment": "HEK-293T viability loss after treatment – luminescence, T-cell screen hits, cytotoxicity control for TCR NF-kB inhibitor project, dose response (AID 489026);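 note: cells exposed to compound about 14 hours before the viability readout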", "type": "functional, cell-based"}, "[4]": {"molecular_target": "Luciferin 4-monooxygenase (Photinus pyralis, UniProt P08659)", "sequence (P08659 whole entry)": "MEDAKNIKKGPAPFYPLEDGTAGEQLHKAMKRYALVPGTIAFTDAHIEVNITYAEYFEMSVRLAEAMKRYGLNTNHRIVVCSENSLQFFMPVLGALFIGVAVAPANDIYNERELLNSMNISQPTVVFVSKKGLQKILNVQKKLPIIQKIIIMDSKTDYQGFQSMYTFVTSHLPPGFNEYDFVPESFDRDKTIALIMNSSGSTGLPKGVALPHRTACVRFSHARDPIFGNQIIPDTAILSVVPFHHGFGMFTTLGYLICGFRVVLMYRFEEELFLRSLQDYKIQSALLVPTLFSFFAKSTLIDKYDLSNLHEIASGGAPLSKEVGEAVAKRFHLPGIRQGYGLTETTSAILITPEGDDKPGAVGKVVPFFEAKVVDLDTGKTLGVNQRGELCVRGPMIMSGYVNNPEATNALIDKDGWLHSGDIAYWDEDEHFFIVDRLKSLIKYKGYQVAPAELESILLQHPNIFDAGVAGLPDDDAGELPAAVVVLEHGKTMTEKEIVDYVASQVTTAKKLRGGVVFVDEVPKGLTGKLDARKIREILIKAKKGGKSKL", "experiment": "inhibition of purified Photinus pyralis luciferase – biochemical, luminescence, dose response (AID 1891)"}, "[5]": {"experiment": "luciferase reporter signal suppression in cells – H4 neuroglioma cells, luminescence, dose response (AID 1990)", "type": "functional, cell-based"}, "[6]": {"experiment": "alpha-synuclein stem-loop luciferase translation blockers – H4 neuroglioma cells, luminescence, confirmation (AID 1988)", "type": "functional, cell-based"}, "[7]": {"experiment": "Luminescence-based counterscreen assay for KLF5 inhibitors: dose response cell-based high throughput screening assay to identify cytotoxic compounds using the IEC-6 intestinal epithelial cell line. [Related pubchem assays: 1700 (Primary screen.), 1834 (Confirmation screen.), 1858 (Summary AID.), 1905 (Counterscreen.)]", "type": "functional"}, "[8]": {"molecular_target": "Peroxisome proliferator-activated receptor gamma/Nuclear receptor coactivator 1 (Homo sapiens, UniProt P37231)", "type": "functional"}, "[9]": {"molecular_target": "Peroxisome proliferator-activated receptor gamma/Nuclear receptor coactivator 2 (Homo sapiens, UniProt P37231)", "sequence (P37231 whole entry)": "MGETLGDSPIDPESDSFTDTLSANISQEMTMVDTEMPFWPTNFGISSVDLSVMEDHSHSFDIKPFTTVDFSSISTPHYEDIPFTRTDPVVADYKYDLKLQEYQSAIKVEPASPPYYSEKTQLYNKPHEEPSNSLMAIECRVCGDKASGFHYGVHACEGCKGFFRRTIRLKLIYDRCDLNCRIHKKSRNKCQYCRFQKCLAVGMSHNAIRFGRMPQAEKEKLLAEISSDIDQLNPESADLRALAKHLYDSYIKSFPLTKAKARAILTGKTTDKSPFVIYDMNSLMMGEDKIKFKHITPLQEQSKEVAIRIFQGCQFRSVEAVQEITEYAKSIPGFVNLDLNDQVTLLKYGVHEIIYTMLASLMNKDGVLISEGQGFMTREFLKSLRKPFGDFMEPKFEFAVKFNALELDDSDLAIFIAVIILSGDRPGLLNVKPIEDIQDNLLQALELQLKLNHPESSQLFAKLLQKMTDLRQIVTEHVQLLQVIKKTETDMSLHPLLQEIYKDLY", "sequence (Q15596 whole entry, further chain)": "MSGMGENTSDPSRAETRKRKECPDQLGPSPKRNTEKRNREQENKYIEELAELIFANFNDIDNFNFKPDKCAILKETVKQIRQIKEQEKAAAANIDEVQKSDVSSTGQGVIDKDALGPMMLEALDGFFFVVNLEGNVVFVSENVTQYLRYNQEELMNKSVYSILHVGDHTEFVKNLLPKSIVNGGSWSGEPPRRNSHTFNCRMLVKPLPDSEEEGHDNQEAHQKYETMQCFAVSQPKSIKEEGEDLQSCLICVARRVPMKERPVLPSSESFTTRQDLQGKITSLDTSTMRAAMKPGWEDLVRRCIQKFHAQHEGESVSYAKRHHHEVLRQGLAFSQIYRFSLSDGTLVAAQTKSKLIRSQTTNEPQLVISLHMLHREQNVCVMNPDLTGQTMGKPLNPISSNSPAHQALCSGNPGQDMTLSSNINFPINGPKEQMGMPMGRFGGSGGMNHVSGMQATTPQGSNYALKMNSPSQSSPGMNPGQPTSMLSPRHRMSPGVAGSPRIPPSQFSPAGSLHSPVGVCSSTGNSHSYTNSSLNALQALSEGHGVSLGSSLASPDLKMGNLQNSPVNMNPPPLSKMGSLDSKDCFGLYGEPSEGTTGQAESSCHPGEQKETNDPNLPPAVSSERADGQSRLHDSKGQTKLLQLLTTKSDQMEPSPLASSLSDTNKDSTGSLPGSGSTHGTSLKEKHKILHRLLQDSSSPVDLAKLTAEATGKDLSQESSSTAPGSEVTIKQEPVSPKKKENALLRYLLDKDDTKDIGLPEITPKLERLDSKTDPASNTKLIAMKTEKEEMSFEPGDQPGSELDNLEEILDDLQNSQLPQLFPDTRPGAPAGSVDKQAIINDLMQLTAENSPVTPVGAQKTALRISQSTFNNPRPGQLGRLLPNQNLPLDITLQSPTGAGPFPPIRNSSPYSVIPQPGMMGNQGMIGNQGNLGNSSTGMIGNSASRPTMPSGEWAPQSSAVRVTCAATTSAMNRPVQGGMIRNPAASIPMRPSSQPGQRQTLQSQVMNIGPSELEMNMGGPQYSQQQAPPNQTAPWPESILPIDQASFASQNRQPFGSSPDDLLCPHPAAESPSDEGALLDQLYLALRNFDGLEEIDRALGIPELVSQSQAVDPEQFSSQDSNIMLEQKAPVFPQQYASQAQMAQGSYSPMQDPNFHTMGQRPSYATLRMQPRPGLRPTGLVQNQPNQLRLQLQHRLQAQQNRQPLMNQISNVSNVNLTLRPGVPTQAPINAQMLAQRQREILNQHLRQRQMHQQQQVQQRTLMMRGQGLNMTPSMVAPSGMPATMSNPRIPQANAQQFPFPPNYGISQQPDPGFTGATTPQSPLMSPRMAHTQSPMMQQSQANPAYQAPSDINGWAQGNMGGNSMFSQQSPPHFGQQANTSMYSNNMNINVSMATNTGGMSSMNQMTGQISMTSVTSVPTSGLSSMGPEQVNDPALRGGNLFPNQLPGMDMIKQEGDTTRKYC", "type": "functional"}, "[10]": {"molecular_target": "Peroxisome proliferator-activated receptor gamma/Nuclear receptor coactivator 3 (Homo sapiens, UniProt P37231)", "sequence (P37231 whole entry)": "as the sequence (P37231 whole entry) above", "sequence (Q9Y6Q9 whole entry, further chain)": "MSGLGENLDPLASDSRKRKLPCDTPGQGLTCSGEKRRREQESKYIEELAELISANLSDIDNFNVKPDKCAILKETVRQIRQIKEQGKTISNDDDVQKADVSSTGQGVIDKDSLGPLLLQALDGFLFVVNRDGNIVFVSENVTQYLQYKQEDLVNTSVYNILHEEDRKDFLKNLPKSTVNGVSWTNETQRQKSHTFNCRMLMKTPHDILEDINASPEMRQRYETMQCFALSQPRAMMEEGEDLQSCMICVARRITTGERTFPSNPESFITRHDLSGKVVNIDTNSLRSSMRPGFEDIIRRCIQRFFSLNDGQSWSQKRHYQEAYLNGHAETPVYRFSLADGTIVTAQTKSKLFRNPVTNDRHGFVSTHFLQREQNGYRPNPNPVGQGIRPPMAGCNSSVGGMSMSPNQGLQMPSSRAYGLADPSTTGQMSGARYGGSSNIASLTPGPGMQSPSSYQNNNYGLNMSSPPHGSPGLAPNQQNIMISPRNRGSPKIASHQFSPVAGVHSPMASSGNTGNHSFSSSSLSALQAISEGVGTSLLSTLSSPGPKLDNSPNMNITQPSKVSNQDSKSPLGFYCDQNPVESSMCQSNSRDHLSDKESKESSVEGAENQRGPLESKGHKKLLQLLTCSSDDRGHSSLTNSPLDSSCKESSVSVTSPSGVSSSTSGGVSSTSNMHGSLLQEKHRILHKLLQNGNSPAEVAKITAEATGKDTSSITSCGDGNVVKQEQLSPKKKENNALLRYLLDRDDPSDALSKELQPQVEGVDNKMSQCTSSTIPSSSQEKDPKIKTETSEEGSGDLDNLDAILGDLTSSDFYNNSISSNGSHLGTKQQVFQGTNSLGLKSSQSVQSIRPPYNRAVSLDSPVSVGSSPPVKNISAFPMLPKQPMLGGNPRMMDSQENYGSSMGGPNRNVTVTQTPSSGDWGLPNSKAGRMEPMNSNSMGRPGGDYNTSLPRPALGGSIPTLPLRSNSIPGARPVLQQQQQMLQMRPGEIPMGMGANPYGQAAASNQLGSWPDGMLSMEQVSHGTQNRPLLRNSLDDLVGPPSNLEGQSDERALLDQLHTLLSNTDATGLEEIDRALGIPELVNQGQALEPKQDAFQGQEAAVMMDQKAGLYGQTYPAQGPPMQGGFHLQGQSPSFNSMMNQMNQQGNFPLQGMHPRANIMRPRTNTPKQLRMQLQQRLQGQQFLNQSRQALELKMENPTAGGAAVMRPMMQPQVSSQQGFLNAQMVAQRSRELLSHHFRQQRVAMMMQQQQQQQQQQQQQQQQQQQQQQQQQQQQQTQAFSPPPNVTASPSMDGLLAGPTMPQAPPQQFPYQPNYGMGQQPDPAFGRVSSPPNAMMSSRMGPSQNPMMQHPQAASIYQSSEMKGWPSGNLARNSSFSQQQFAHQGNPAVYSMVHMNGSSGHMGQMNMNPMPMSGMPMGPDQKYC", "type": "functional"}, "[11]": {"experiment": "HPDE-C7 pancreatic duct cell viability loss – fluorescence, HTS (AID 430)", "type": "functional, cell-based", "details": "Homo sapiens"}, "[12]": {"experiment": "viability loss of HPDE-C7K cells – cell-based, fluorescence, HTS, primary screen (AID 431)", "type": "functional", "details": "Homo sapiens"}, "[13]": {"experiment": "A Cell Based Secondary Assay To Explore Cytotoxicity of Compounds that Sensitize Mycobacterium Tuberculosis to Beta-Lactam Antibiotics.", "type": "functional"}, "[14]": {"experiment": "THP-1 cell cytotoxicity, dose response, cytotoxicity control for non-replicating M. tuberculosis project (AID 489025)", "type": "functional"}, "[15]": {"experiment": "Luminescence Cell-Based Dose Response HTS to Identify Activators of Luciferase Translation or Activity in H4 […] Cells. [Related pubchem assays: 1829 (Project Summary), 1814 (Primary HTS)]", "type": "functional"}, "[16]": {"experiment": "Luminescence Cell-Based Dose Confirmation HTS to Identify Activators of 5'UTR Stem-Loop Driven Alpha-Synuclein mRNA Translation in H4 Neuroglioblastoma Cells. [Related pubchem assays: 1829 (Project Summary), 1814 (Primary HTS)]", "type": "functional"}, "H4": {"tested_on": "H4", "experiment": "Luminescence Cell-Based Dose Response HTS to Identify Activators of 5'UTR Stem-Loop Driven Prion Protein mRNA Translation in H4 Neuroglioblastoma Cells. [Related pubchem assays: 1829 (Project Summary), 1814 (Primary HTS)]", "type": "functional", "details": "Homo sapiens"}, "cells": {"experiment": "cells", "type": "functional"}, "[17]": {"experiment": "viability of uninfected HEp-2 cells – cell-based, HTS, cytotoxicity control for RSV inhibitor project, dose response (AID 2410)", "type": "functional", "details": "human respiratory syncytial virus"}, "[18]": {"molecular_target": "T2, Replicative DNA helicase DnaB (Mycobacterium tuberculosis, UniProt P9WMR3)", "T2 sequence (P9WMR3 whole entry)": "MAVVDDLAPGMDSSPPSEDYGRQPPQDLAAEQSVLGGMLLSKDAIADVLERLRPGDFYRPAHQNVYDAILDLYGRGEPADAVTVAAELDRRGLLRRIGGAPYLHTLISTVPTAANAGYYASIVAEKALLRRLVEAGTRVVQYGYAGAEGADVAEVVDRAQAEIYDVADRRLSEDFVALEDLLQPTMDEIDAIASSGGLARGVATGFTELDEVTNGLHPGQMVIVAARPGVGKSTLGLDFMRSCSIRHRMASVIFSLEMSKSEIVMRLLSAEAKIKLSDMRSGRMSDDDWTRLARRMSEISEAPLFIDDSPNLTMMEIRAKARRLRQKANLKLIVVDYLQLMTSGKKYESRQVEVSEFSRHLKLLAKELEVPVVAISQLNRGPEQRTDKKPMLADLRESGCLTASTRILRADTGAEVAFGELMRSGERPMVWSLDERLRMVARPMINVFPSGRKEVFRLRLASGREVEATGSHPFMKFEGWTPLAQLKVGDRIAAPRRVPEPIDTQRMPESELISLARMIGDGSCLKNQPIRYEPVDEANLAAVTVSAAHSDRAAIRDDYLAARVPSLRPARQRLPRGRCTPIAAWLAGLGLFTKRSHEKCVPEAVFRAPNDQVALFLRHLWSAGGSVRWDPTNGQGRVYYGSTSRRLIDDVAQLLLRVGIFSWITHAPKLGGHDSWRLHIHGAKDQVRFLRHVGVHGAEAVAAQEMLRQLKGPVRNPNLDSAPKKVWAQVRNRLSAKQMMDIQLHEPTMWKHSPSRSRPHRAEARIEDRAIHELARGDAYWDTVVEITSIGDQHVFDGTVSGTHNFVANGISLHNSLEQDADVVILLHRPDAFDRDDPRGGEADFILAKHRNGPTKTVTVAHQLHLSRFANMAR", "experiment": "DnaB intein splicing inhibitors, dose response, biochemical, cell-free fluorescence (AID 449749)", "type": "functional"}, "Protein RecA": {"molecular_target": "T3, Protein RecA (Mycobacterium tuberculosis, UniProt P9WHJ3)", "T3 sequence (P9WHJ3 whole entry)": "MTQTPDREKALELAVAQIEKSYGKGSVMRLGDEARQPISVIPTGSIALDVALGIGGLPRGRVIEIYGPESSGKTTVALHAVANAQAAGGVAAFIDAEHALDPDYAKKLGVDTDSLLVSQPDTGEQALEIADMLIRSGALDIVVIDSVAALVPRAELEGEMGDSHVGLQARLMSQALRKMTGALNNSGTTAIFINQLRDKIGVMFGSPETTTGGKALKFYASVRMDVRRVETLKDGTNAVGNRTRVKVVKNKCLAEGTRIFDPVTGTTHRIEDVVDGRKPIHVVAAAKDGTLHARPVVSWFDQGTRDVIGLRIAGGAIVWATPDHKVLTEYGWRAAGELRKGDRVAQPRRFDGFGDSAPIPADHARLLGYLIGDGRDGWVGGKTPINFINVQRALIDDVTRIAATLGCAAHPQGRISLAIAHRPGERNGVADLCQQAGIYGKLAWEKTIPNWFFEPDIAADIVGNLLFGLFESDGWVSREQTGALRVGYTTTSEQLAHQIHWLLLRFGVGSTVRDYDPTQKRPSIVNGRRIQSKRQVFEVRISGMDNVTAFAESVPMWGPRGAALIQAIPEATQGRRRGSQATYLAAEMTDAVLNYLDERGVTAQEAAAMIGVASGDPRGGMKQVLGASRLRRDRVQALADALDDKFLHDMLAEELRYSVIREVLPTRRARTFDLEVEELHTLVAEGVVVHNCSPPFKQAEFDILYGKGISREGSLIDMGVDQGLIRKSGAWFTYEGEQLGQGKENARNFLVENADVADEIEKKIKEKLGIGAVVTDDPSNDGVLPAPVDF", "experiment": "Fluorescence Cell-Free Homogeneous Dose Retest to Identify Inhibitors of RecA-Intein Splicing Activity. [Related pubchem assays (depositor defined):AID2097, AID2223, AID489010, AID492950]", "type": "functional"}}, "note": "Activity calls are given as the source filed them."}
{"smiles": "COc1ccc(NC(=O)CSc2nccc(C)n2)cc1", "values": [{"measurement": "IC50", "setting": "Leucine aminopeptidase", "value": "20.3 µM (active)"}]}
{"smiles": "NC(=NOCc1ccc([N+](=O)[O-])cc1)c1ccccn1", "values": [{"measurement": "EC50", "setting": "[1]", "value": "7.95 µM (active)"}, {"measurement": "EC50", "setting": "[2]", "value": "0.223 µM (active)"}, {"measurement": "IC50", "setting": "[3]", "value": "> 80 µM (inactive)"}, {"measurement": "EC50", "setting": "[4]", "value": "9.46 µM (active)"}, {"measurement": "EC50", "setting": "[5]", "value": "0.201 µM (active)"}, {"measurement": "EC50", "setting": "[6]", "value": "0.143 µM (active)"}, {"measurement": "IC50", "setting": "[7]", "value": "> 39.8 µM (not active)"}]}
{"smiles": "COc1ccc(S(=O)(=O)Nc2c(F)cccc2F)cc1", "values": [{"measurement": "EC50", "setting": "[8]", "value": "> 79.4 µM (not active)"}, {"measurement": "EC50", "setting": "[9]", "value": "> 79.4 µM (not active)"}, {"measurement": "EC50", "setting": "[10]", "value": "> 79.4 µM (not active)"}]}
{"smiles": "O=C1c2n[nH]c(-c3ccccc3O)c2C(c2ccc(F)cc2)N1Cc1ccco1", "note": "(configuration not stated)", "values": [{"measurement": "EC50", "setting": "[11]", "value": "16.9 µM (active)"}, {"measurement": "EC50", "setting": "[12]", "value": "18.7 µM (active)"}]}
{"smiles": "CCO[C@H]1OC(C(=O)NCc2nc3ccccc3[nH]2)=C[C@@H](c2ccc(C(F)(F)F)cc2)[C@@H]1CCCO", "values": [{"measurement": "CC50", "setting": "[13]", "value": "> 40 µM (active)"}]}
{"smiles": "CCOC(=O)Nc1c(O)ccc2oc(C)c(-c3ccccc3)c12", "values": [{"measurement": "IC50", "setting": "Leucine aminopeptidase", "value": "17.3 µM (active)"}]}
{"smiles": "CCc1ccc(N2NC(=O)/C(=C/C=C/c3ccco3)C2=O)cc1", "values": [{"measurement": "CC50", "setting": "[14]", "value": "> 40 µM (active)"}, {"measurement": "EC50", "setting": "[15]", "value": "48 µM (active)"}, {"measurement": "EC50", "setting": "[16]", "value": "14.8 µM (active)"}, {"measurement": "EC50", "setting": "H4", "value": "14.3 µM (active)"}, {"measurement": "IC50", "setting": "cells", "value": "12.1 µM (active)"}]}
{"smiles": "CCOc1ccc(S(=O)(=O)Nc2cc(Sc3nc[nH]n3)c3oc(=O)sc3c2)cc1", "values": [{"measurement": "EC50", "setting": "[11]", "value": "18.6 µM (active)"}, {"measurement": "CC50", "setting": "[17]", "value": "26.2 µM (active)"}, {"measurement": "EC50", "setting": "[12]", "value": "13.8 µM (active)"}]}
{"smiles": "O=S(=O)(CCSc1ccccn1)c1nc2ccccc2s1", "values": [{"measurement": "EC50", "setting": "[11]", "value": "6.03 µM (active)"}, {"measurement": "AC50", "setting": "[18]", "value": "5.68 µM (active)"}, {"measurement": "EC50", "setting": "Protein RecA", "value": "9.21 µM (active)"}, {"measurement": "EC50", "setting": "[12]", "value": "8.47 µM (active)"}]}
